According to ChEMBL document CHEMBL5360649, “Potential Broad-Spectrum Antimicrobial, Wound Healing, and Disinfectant Cationic Peptide Crafted from Snake Venom” (J Med Chem, 2023):
Active and inactive are the calls of the source. No cut-off for these calls is given here.

Experiments:
[1] = system: Escherichia coli; test: Antibacterial activity against Escherichia coli ATCC CRM-11229 assessed as inhibition of bacterial growth at 25 to 100 uM incubated overnight by spotting assay; assay type: functional, organism-based; details: dose 25-100 µM
[2] = organism: Rattus norvegicus; test: Induction of wound healing in surgically-induced Albino Wistar rat wound model assessed as dense epithelial-tissue layers at 10 uM measured after 11 days by H&E staining based analysis; assay type: functional; details: time 11.0 day
[3] = system: Staphylococcus aureus; test: Antibacterial activity against methicillin resistant Staphylococcus aureus assessed as inhibition of bacterial growth incubated for 0.5 to 8.5 hrs by microtiter plate reader analysis; assay type: functional, organism-based; details: dose 1.25-40 µM, time 0.5-8.5 hrs
[4] = organism: Rattus norvegicus; test: Induction of wound healing in surgically-induced Albino Wistar rat wound model inoculated with methicillin-resistant Staphylococcus aureus assessed as hair follicle formation at 10 uM measured after 11 days by H&E staining based analysis; assay type: functional; details: time 11.0 day
[5] = system: Klebsiella pneumoniae; test: Induction of morphological changes in carbapenem resistant Klebsiella pneumoniae ATCC BAA-1705 assessed as membrane damage at MIC concentration incubated for 60 mins by SEM analysis; assay type: functional, organism-based
[6] = system: Escherichia coli; test: Antibacterial activity against Escherichia coli assessed as inhibition of bacterial growth at 1.25 to 40 uM by microtiter plate reader analysis; assay type: functional, organism-based; details: dose 1.25-40 µM, time 0.5-8.5 hrs, TDE = time-dependent effect
[7] = system: Staphylococcus aureus; test: Induction of morphological changes in methicillin-resistant Staphylococcus aureus assessed as cellular destruction at MIC concentration incubated for 6 hrs by AFM analysis; assay type: functional, organism-based
[8] = system: Pseudomonas aeruginosa; test: Induction of morphological changes in Pseudomonas aeruginosa assessed as cellular destruction at MIC concentration incubated for 6 hrs by AFM analysis; assay type: functional, organism-based
[9] = Cytotoxicity against human MCF7 cells assessed as cell viability at 12.5 uM incubated for 24 hrs by MTT assay relative to control; assay type: toxicity, cell-based; details: read-out: Activity
[10] = system: Escherichia coli; test: Induction of morphological changes in Escherichia coli assessed as cell blebbing at MIC concentration incubated for 60 mins by SEM analysis; assay type: functional, organism-based
[11] = system: Pseudomonas aeruginosa; test: Antibiofilm activity against Pseudomonas aeruginosa assessed as biofilm eradication at 0.5 times of MIC incubated for 24 hrs by CV staining based analysis relative to control; assay type: functional
[12] = system: Klebsiella pneumoniae; test: Antibiofilm activity against preformed biofilm in Klebsiella pneumoniae assessed as decrease in cell viability at 0.5 times of MIC incubated overnight by MTT assay relative to control; assay type: functional
[13] = system: Staphylococcus aureus; test: Induction of morphological changes in methicillin-resistant Staphylococcus aureus assessed as cellular destruction at MIC concentration incubated for 6 hrs by SEM analysis; assay type: functional, organism-based
[14] = system: Pseudomonas aeruginosa; test: Antibacterial activity against Pseudomonas aeruginosa assessed as cell division block by measuring cellular elongation at 0.5 to 1 times of MIC incubated for 30 mins by SYTO9/PI staining based fluorescence microscopic analysis; assay type: functional, organism-based
[15] = system: Klebsiella pneumoniae; test: Induction of resistance development in Klebsiella pneumoniae assessed as fold increase in MIC at 0.5 times of MIC incubated with compound for 12 hrs followed by replacement with fresh medium for 12 hrs and measured after 20 repeated cycles; assay type: functional; details: time 240 hrs
[16] = system: Pseudomonas aeruginosa; test: Induction of morphological changes in Pseudomonas aeruginosa assessed as inhibition of cell division by measuring elongated cells at MIC concentration incubated for 60 mins by SEM analysis; assay type: functional, organism-based
[17] = system: Pseudomonas aeruginosa; test: Antibiofilm activity against Pseudomonas aeruginosa assessed as clearance of preformed biofilm at 0.5 times of MIC incubated for 24 hrs by CV staining based analysis relative to control; assay type: functional
[18] = system: Pseudomonas aeruginosa; test: Induction of morphological changes in Pseudomonas aeruginosa assessed as inhibition of cell division by measuring filamented cells at MIC concentration incubated for 60 mins by SEM analysis; assay type: functional, organism-based
[19] = system: Klebsiella pneumoniae; test: Induction of morphological changes in carbapenem resistant Klebsiella pneumoniae ATCC BAA-1705 assessed as cellular destruction at MIC concentration incubated for 6 hrs by SEM analysis; assay type: functional, organism-based
[20] = system: Pseudomonas aeruginosa; test: Antibacterial activity against Pseudomonas aeruginosa assessed as inhibition of bacterial growth at 1.25 to 40 uM by microtiter plate reader analysis; assay type: functional, organism-based; details: dose 1.25-40 µM, time 0.5-8.5 hrs, TDE = time-dependent effect
[21] = system: Escherichia coli; test: Bactericidal activity against Escherichia coli ATCC CRM-11229 assessed as reduction in bacterial growth incubated for 24 hrs by Mueller Hinton Agar based plate analysis; assay type: functional
[22] = organism: Rattus norvegicus; test: Induction of wound healing in surgically-induced Albino Wistar rat wound model inoculated with methicillin-resistant Staphylococcus aureus assessed as reduction in inflammatory cell infiltration at 10 uM measured after 11 days by H&E staining based analysis; assay type: functional; details: time 11.0 day
[23] = system: Klebsiella pneumoniae; test: Antibiofilm activity against Klebsiella pneumoniae assessed as increase in dead cell proportion at MIC incubated overnight by SYTO9/PI staining based fluorescence analysis; assay type: functional, organism-based
[24] = system: Klebsiella pneumoniae; test: Antibiofilm activity against preformed biofilm in Klebsiella pneumoniae assessed as decrease in metabolic activity at MIC incubated overnight by MTT assay; assay type: functional, organism-based
[25] = system: U-937; test: Immunomodulatory activity in human U-937 cells assessed as reduction in LPS-induced TNF-alpha expression level incubated for 24 hrs by radioimmunoprecipitation based dot-plot analysis; assay type: functional, cell-based; details: dose 5-10 µM
[26] = […] activity against LPS-induced human PBMC assessed as increase in cell number by measuring rise in cell proliferation percentage at 12.5 uM measured after 12 hrs by lymphocyte proliferation assay (12 hrs incubated Rvb = 478.774%); assay type: functional
[27] = system: Cell membrane; test: Induction of cytoplasmic membrane depolarization in Klebsiella pneumoniae assessed as increase in fluorescence intensity at 0.5 to 1 times of MIC incubated for 22 mins by DiSC3-5 dye based fluorescence method; assay type: subcellular
[28] = system: Escherichia coli; test: Antibacterial activity against Escherichia coli assessed as induction of cellular damage at MIC concentration incubated for 30 mins by SYTO9/PI staining based fluorescence microscopic analysis; assay type: functional, organism-based
[29] = Induction of wound healing in surgically-induced Albino Wistar rat wound model inoculated with methicillin-resistant Staphylococcus aureus assessed as decrease in mean open wound percentage at 10 uM measured after 11 days by photographic analysis (reference value: 32.25%); assay type: functional; design: scale not given: the % may be the effect or the level left; details: time 11 day
[30] = system: Klebsiella pneumoniae; test: Antibiofilm activity against Klebsiella pneumoniae assessed as biofilm eradication at 1 times of MIC incubated for 24 hrs by CV staining based analysis relative to control; assay type: functional
[31] = Stability in human serum assessed as intact peptide remaining at 1 mM measured after 8 hrs by HPLC analysis; assay type: ADME, cell-free; details: read-out: Stability
[32] = system: Klebsiella pneumoniae; test: Antibacterial activity against Klebsiella pneumoniae assessed as induction of cellular damage at MIC concentration incubated for 30 mins by SYTO9/PI staining based fluorescence microscopic analysis; assay type: functional, organism-based
[33] = Hemolytic activity in human RBC assessed as hemolysis at 3.125 to 12.5 uM incubated for 30 mins under shaking condition by multiplate reader analysis relative to control; assay type: toxicity, cell-based, Erythrocyte; details: human red blood cells (RBC), dose 3.125-12.5 µM, read-out: Activity
[34] = system: Klebsiella pneumoniae; test: Antibacterial activity against Klebsiella pneumoniae ATCC BAA-1705 assessed as inhibition of bacterial growth at 25 to 100 uM incubated overnight by spotting assay; assay type: functional, organism-based; details: dose 25-100 µM
[35] = organism: Rattus norvegicus; test: Induction of wound healing in surgically-induced Albino Wistar rat wound model assessed as reduction in inflammatory cell infiltration at 10 uM measured after 11 days by H&E staining based analysis; assay type: functional; details: time 11.0 day
[36] = system: Pseudomonas aeruginosa; test: Antibacterial activity against patient-derived Pseudomonas aeruginosa assessed as inhibition of bacterial growth incubated for 24 hrs by CLSI protocol based microdilution method; assay type: functional
[37] = system: Escherichia coli; test: Antibiofilm activity against Escherichia coli in the presence of Cl-; assay type: functional, organism-based

H-FLPIIKWVKKFFWRWR-OH
Activity [1]: Active | Activity [2]: Active | Activity [3]: Dose-Dependent Effect | Activity [4]: Active | Activity [5]: Active | Activity [6]: Tde | Activity [7]: Active | Activity [8]: Active | viability at 24 h, 12.5 µM [9]: 77% | Activity [10]: Active | Activity [11]: ~50% | Activity [12]: 79.96% | Activity [13]: Active | Activity [14]: Active | fold change (FC) [15]: 2 | Activity [16]: Active | Activity [17]: ~53% | Activity [18]: Active | Activity [19]: Active | Activity [20]: Tde | MBC [21]: 4.5 µM | Activity [22]: Active | Activity [23]: Active | Activity [24]: Active | Activity [25]: Dose-Dependent Effect | Activity [26]: 52.357% | Activity [27]: Active | Activity [28]: Active | Activity [29]: 17.22% | Activity [30]: <=78.28% | remaining at 8 h, 1000 µM [31]: 61% | Activity [32]: Active | hemolysis at 0.5 h, up to 12.5 µM [33]: 3.22% | Activity [34]: Active | Activity [35]: Active | MIC [36]: 4 µM | Activity [37]: Active
